As a reminder, the IC50 is the concentration that gives 50% inhibition.

Common to all, as to assay type: biochemical
In one assay the target is JAK2-JH1JH2 (Homo sapiens (Human), UniProt O60674). The assay can be described thus: Enzymatic inhibition assay (RapidFire HTMS), JAK2. As to conditions: 30 μM ATP, 40 μM substrate. The source says: (§1) LC/MS grade Water and Acetonitrile (ACN), were purchased from HoneyWell, Burdick & Jackson (Muskegon, Mich., USA). Dimethylsulfoxide 99.8% (DMSO) and Trifluoroacetic Acid 99.5% (TFA) were purchased from EMD Chemical (Gibbstown, N.J., USA). Adenosine triphosphate (ATP), 4-Morpholinepropanesulfonic acid (MOPS), Magnesium chloride (MgCl2), ethylenediaminetetraacetic acid (EDTA), dithiothreitol (DTT), formic acid >95% (FA) and Tween-20 were purchased from Sigma (St Louis, Mo., USA). 384-well polypropylene plates, Cat #781280 were purchased from Greiner (Monroe, N.C.), RapidFire™ cartridge A C4 Column (Agilent Technologies, Santa Clara, Calif.).
(§2) The HTMS experiments were performed in positive ionization mode on a RapidFire 300 instrument (Agilent Technologies, Santa Clara, Calif.), coupled with an ABSiex QTrap 4000 system with an Electrospray Ionization source (RF-MS) (Concord, ON, Canada). […] The entire system was operated using the RapidFire software interfaced with Analyst software for the mass spectrometer.
(§3) 11-point dosing series were made for each compound by serially diluting 1:3 or 1:4 in DMSO, with point 12 being a DMSO control. From the serial dilution plates, sample was transferred to a 384 wells assay plate (#781280, Greiner, Monroe, N.C.) using Labcyte Echo (Sunnyvale, Calif.), or Biosero ATS (San Diego, Calif.). The compounds were tested in duplicate. Column 12 was used for positive controls, and column 24 contained negative controls with no enzyme added. A compound from our internal collection, with inhibitory activity for JAK isoforms, was used as a reference compound. The final concentration of DMSO was ≤0.25% in a 20 μL reaction. […] The Tyk2 enzyme was pre-incubated with 2 mM ATP for 30 min prior to the reaction initiation. Immediately after the addition of the enzyme to the reaction mixture, the plate was centrifuged at 1000 rpm for 1 minute and incubated at 25° C. for 45 minutes for JAK 3 and 90 minutes for JAK1, JAK2 and Tyk2. The reaction was quenched by the addition of 20 μL of 0.5% TFA containing 0.15 μM of internal standard peptide using Multidrop Combi reagent dispenser (Thermo Scientific, Waltham, Mass.). […] After the quench, the assay plate was centrifuged at 3000 rpm for 3 minutes and sealed with pierceable aluminum foil (Cat #06644-001, Agilent) using a PlateLoc (Agilent Technologies, Santa Clara, Calif.). The plates then were transferred on to the RapidFire for the MS analysis. Compound inhibition was assessed by a decrease of the phosphorylated product levels in sample wells compared to the non-inhibited enzyme reaction.
(§4) The sample analysis on the RapidFire was performed using a mobile phase A consisting of Water/TFA/FA (100:0.01:0.1, v/v/v), a mobile phase B consisting of ACN/Water/TFA/FA (80:20:0.01:0.1, v/v/v). […] The samples were aspirated directly from the 384 assay plate and delivered onto RF-MS microscale solid-phase C4 extraction cartridge (Type A). The undesired component such as salt, cofactor, detergent and large protein were washed out and the retained analytes (substrate, product and IS) were coeluted directly onto the ABSiex Qtrap 4000 system.

The target of the next assay is JAK3-JH1JH2 (Homo sapiens (Human), UniProt P52333). The assay can be described thus: Enzymatic inhibition assay (RapidFire HTMS), JAK3. As to conditions: 150 μM ATP, 40 μM substrate.
Text: as §1, §2
as §3, with “compound.” for “compound. The final concentration of DMSO was ≤0.25% in a 20 μL reaction.”
as §4

The target in a further assay is JAK1-JH1JH2 (Homo sapiens (Human), UniProt P23458). The assay can be described thus: Enzymatic inhibition assay (RapidFire HTMS), JAK1. To be noted: 12.5 μM ATP, 200 μM substrate; read-out: JAK1-JH2JH1 IC50.
Text: as §1, §2, §3, §4

A further assay deals with Tyk2-JH1JH2 (Homo sapiens (Human), UniProt P29597, C1142A/C936A). The assay can be described thus: Enzymatic inhibition assay (RapidFire HTMS), Tyk2. As to conditions: 50 μM ATP, 200 μM substrate.
Text: as §1, §2, §3, §4

JAK2-JH1JH2, sequence (O60674 532-1132): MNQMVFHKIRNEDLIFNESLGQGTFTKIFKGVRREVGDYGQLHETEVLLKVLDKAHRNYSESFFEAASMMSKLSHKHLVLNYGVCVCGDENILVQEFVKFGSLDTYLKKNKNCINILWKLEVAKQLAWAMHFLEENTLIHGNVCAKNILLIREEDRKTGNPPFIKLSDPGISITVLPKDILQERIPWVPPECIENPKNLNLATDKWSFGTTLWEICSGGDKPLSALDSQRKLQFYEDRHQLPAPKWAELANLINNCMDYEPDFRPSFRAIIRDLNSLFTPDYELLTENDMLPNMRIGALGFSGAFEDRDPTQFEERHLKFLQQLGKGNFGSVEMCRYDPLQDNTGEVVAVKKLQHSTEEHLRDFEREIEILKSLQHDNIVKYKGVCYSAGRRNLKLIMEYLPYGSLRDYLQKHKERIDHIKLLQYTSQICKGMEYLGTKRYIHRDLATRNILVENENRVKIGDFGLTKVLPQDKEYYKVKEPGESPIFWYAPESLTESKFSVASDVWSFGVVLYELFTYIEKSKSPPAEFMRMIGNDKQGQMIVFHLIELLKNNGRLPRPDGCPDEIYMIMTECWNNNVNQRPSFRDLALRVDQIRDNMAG
Tyk2-JH1JH2, sequence (P29597 580-1182 C936A/C1142A): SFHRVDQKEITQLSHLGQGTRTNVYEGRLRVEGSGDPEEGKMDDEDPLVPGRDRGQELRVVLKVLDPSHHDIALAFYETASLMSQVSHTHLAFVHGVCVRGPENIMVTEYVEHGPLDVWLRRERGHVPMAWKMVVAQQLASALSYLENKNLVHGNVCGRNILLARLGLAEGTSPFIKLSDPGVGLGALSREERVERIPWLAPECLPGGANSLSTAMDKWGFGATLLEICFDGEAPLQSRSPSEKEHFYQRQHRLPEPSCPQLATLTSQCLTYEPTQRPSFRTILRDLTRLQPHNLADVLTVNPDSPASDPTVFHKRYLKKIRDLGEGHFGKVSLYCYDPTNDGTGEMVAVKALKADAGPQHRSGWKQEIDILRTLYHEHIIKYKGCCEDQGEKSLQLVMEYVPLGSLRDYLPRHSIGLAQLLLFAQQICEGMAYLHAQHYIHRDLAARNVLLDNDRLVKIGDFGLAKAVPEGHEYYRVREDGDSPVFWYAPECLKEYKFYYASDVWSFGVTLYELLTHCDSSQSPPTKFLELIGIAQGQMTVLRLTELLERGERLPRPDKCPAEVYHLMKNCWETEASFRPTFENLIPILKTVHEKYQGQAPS
JAK3-JH1JH2, sequence (P52333 512-1124): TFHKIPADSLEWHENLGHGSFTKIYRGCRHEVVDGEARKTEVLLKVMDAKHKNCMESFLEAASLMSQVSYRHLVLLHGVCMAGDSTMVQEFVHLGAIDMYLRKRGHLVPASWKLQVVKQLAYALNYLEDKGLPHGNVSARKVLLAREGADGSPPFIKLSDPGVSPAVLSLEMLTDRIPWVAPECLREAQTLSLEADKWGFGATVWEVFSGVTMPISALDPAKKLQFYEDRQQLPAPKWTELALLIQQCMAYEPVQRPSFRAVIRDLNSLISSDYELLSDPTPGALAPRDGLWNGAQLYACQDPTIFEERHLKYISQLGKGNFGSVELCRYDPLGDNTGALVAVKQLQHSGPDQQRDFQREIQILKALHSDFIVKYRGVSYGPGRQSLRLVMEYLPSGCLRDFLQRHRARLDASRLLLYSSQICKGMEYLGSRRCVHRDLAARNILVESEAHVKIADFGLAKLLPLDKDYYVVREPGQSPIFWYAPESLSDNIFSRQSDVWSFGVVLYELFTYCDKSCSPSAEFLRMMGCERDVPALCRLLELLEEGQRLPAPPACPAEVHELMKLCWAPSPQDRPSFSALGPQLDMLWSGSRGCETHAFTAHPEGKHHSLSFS
JAK1-JH1JH2, sequence (P23458 574-1154): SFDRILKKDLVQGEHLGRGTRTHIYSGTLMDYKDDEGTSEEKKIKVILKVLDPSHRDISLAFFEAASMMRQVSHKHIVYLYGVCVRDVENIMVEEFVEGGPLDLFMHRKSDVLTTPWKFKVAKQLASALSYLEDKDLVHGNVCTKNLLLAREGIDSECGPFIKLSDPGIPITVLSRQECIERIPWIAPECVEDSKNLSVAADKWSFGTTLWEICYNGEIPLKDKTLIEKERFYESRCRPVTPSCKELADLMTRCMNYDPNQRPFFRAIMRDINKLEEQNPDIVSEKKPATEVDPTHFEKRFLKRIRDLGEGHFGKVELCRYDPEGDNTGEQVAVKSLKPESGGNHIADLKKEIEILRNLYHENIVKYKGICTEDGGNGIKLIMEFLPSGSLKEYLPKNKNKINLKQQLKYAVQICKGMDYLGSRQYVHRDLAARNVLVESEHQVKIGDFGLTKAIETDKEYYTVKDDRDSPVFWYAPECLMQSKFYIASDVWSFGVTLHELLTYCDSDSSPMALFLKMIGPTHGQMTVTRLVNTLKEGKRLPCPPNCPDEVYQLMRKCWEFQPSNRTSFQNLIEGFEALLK

As for `N#CC[C@H]1CC[C@H](n2c(-c3cnc(N)nc3)nc3cnc4[nH]ccc4c32)CC1` [Ex. 51, 2-((1r,4r)-4-(2-(2-Aminopyrimidin-5-yl)imidazo[4,5-d]pyrrolo[2,3-b]pyridin-1(6H)-yl)cyclohexyl)acetonitrile], the IC50 against JAK2-JH1JH2 is 3.2 nM; against JAK3-JH1JH2, 127 nM; on JAK1-JH1JH2, 0.2 nM; at Tyk2-JH1JH2, 5.8 nM.
For the compound `CC(=N)NCc1nc2cnc3[nH]ccc3c2n1[C@H]1CC[C@H](CC#N)CC1` [Ex. 86, N-((1-((1r,4r)-4-(Cyanomethyl)cyclohexyl)-1,6-dihydroimidazo[4,5-d]pyrrolo[2,3-b]pyridin-2-yl)methyl)acetimidamide], the IC50 on JAK2-JH1JH2 amounted to 14 nM; against JAK3-JH1JH2, 2270 nM; on JAK1-JH1JH2, 0.4 nM; on Tyk2-JH1JH2, 2.6 nM.
For `N#CC[C@H]1CC[C@H](n2c(CC(=O)NCc3ccc(CO)cc3)nc3cnc4[nH]ccc4c32)CC1` [Ex. 68, 2-(1-((1r,4r)-4-(Cyanomethyl)cyclohexyl)-1,6-dihydroimidazo[4,5-d]pyrrolo[2,3-b]pyridin-2-yl)-N-(4-(hydroxymethyl)benzyl)acetamide], in that order: 8.2 nM, 180 nM, 0.3 nM and 13.3 nM.
For `CSc1nccc(-c2nc3cnc4[nH]ccc4c3n2[C@H]2CC[C@H](CC#N)CC2)n1` [Ex. 98, 2-((1r,4r)-4-(2-(2-(Methylthio)pyrimidin-4-yl)imidazo[4,5-d]pyrrolo[2,3-b]pyridin-1(6H)-yl)cyclohexyl)acetonitrile], in that order: 9.3 nM, 117 nM, 0.5 nM and 13 nM.
With `N#CC[C@H]1CC[C@H](n2c(CC(=O)N3CCC(F)(F)CC3)nc3cnc4[nH]ccc4c32)CC1` [Ex. 107, 2-((1r,4r)-4-(2-(2-(4,4-Difluoropiperidin-1-yl)-2-oxoethyl)imidazo[4,5-d]pyrrolo[2,3-b]pyridin-1(6H)-yl)cyclohexyl)acetonitrile], the concentration for half-maximal inhibition (IC50) against JAK2-JH1JH2 was 18.2 nM; against JAK3-JH1JH2, 142 nM; at JAK1-JH1JH2, 0.6 nM; against Tyk2-JH1JH2, 5.1 nM.
For `CC(C)CN1CCC(NC(=O)Cc2nc3cnc4[nH]ccc4c3n2[C@H]2CC[C@H](CC#N)CC2)CC1` [Ex. 62, 2-(1-((1r,4r)-4-(Cyanomethyl)cyclohexyl)-1,6-dihydroimidazo[4,5-d]pyrrolo[2,3-b]pyridin-2-yl)-N-(1-isobutylpiperidin-4-yl)acetamide], in that order: 2.1 nM, 30.6 nM, 0.3 nM and 2.6 nM.
Consider `N#CC[C@H]1CC[C@H](n2c(CNC(=O)CC3CC3)nc3cnc4[nH]ccc4c32)CC1` [Ex. 94, N-((1-((1r,4r)-4-(Cyanomethyl)cyclohexyl)-1,6-dihydroimidazo[4,5-d]pyrrolo[2,3-b]pyridin-2-yl)methyl)-2-cyclopropylacetamide], for which the IC50 is 20.5 nM against JAK2-JH1JH2, 264 nM against JAK3-JH1JH2, 0.5 nM at JAK1-JH1JH2 and 12.1 nM against Tyk2-JH1JH2.
Turning to `N#CC[C@H]1CC[C@H](n2c(-c3ccc(C#N)nc3)nc3cnc4[nH]ccc4c32)CC1` [Ex. 115, 5-(1-((1r,4r)-4-(Cyanomethyl)cyclohexyl)-1,6-dihydroimidazo[4,5-d]pyrrolo[2,3-b]pyridin-2-yl)picolinonitrile], the IC50 at JAK2-JH1JH2 stood at 73.2 nM; on JAK3-JH1JH2, 754 nM; at JAK1-JH1JH2 it was 0.6 nM; against Tyk2-JH1JH2, 86.2 nM.
Regarding `C[Si](C)(C)[C@H]1CC[C@H](NC(=O)Cc2nc3cnc4[nH]ccc4c3n2[C@H]2CC[C@H](CC#N)CC2)CC1` [Ex. 167, 2-(1-((1r,4r)-4-(Cyanomethyl)cyclohexyl)-1,6-dihydroimidazo[4,5-d]pyrrolo[2,3-b]pyridin-2-yl)-N-((1r,4r)-4-(trimethylsilyl)cyclohexyl)acetamide], the IC50 against JAK2-JH1JH2 turned out to be 20.8 nM; at JAK1-JH1JH2, 1.9 nM; against Tyk2-JH1JH2, 25.5 nM.
As for `CCOP(=O)(Cc1ccc(NC(=O)Cc2nc3cnc4[nH]ccc4c3n2[C@H]2CC[C@H](CC#N)CC2)cc1)OCC` [Ex. 108, Diethyl 4-(2-(1-((1r,4r)-4-(cyanomethyl)cyclohexyl)-1,6-dihydroimidazo[4,5-d]pyrrolo[2,3-b]pyridin-2-yl)acetamido)benzylphosphonate], the IC50 at JAK2-JH1JH2 was 3.8 nM; at JAK1-JH1JH2, 0.6 nM; against Tyk2-JH1JH2, 7.1 nM.
In the case of `CC(C)(C)COC(=O)NCc1nc2cnc3[nH]ccc3c2n1[C@H]1CC[C@H](CC#N)CC1` [Ex. 154, Neopentyl ((1-((1r,4r)-4-(Cyanomethyl)cyclohexyl)-1,6-dihydroimidazo[4,5-d]pyrrolo[2,3-b]pyridin-2-yl)methyl)carbamate], the IC50 on JAK3-JH1JH2 was determined as 408 nM; on JAK1-JH1JH2, 1.2 nM; at Tyk2-JH1JH2, 16.1 nM.
For `N#CC[C@H]1CC[C@H](n2c(-c3cocn3)nc3cnc4[nH]ccc4c32)CC1` [Ex. 11, 2-((1r,4r)-4-(2-(Oxazol-4-yl)imidazo[4,5-d]pyrrolo[2,3-b]pyridin-1(6H)-yl)cyclohexyl)acetonitrile], in that order: 33.5 nM, 0.1 nM and 1.2 nM.
With `C[Si](C)(C)[C@H]1CC[C@@H](NC(=O)Cc2nc3cnc4[nH]ccc4c3n2[C@H]2CC[C@H](CC#N)CC2)CC1` [Ex. 135, 2-(1-((1r,4r)-4-(Cyanomethyl)cyclohexyl)-1,6-dihydroimidazo[4,5-d]pyrrolo[2,3-b]pyridin-2-yl)-N-((1S,4S)-4-(trimethylsilyl)cyclohexyl)acetamide], the values for the IC50 on JAK2-JH1JH2, on JAK1-JH1JH2 and against Tyk2-JH1JH2 were 4 nM, 0.8 nM and 8.7 nM, respectively.
For `N#CC[C@H]1CC[C@H](n2c(C(=O)N3CCC(O)(c4ccccn4)CC3)nc3cnc4[nH]ccc4c32)CC1` [Ex. 88, 2-((1r,4r)-4-(2-(4-Hydroxy-4-(pyridin-2-yl)piperidine-1-carbonyl)imidazo[4,5-d]pyrrolo[2,3-b]pyridin-1(6H)-yl)cyclohexyl)acetonitrile], in that order: 43.4 nM, 0.4 nM and 49.5 nM.
As to `N#CC[C@H]1CC[C@H](n2c(Cc3ccn[nH]3)nc3cnc4[nH]ccc4c32)CC1` [Ex. 25, 2-((1r,4r)-4-(2-((1H-Pyrazol-5-yl)methyl)imidazo[4,5-d]pyrrolo[2,3-b]pyridin-1(6H)-yl)cyclohexyl)acetonitrile], the IC50 came out at 77.9 nM against JAK3-JH1JH2, 0.1 nM on JAK1-JH1JH2 and 5.3 nM at Tyk2-JH1JH2.
